Assay results taken from patent US7815905B2, “Methods of increasing insulin sensitivity or decreasing insulin secretion by administering corticotropin releasing factor receptor-2 inhibitors” (Research Development Foundation, priority 2006, dated 2010).
“Also recorded” adds a separate entry of the source. Ends that are not written are not given here.

How the values were obtained:
MIN6 cells = test: Ucn 3 secretion from MIN6 cells (Ucn 3 RIA); type: cell-based, mouse; conditions: for Ucn 3 secretion in the presence of 2.8 mM glucose / Ucn 3 release in the presence of 10 mM glucose: 2 h at 37° C.
Excerpt: FIG. 8a-e: Elevation of pancreatic Ucn 3 expression in diabetic rodent models and stimulation of Ucn 3 release from β cells by glucose. (a) Representative agarose gel electrophoresis showing Ucn 3 and S-16 (control) PCR products. (b) Summary of Ucn 3 expression in ob/ob obese mice and the wildtype (WT) littermates. *: p<0.05 vs WT. (c) Ucn 3 mRNA levels in the pancreas of high fat fed rats (HF) and chow fed controls (Ctrl). *: p<0.05 vs Ctrl. (d) Ucn 3 secretion from MIN6 cells in response to various glucose concentrations. (e) Ucn 3 release from MIN6 cells, in response to glucose and/or insulin secretagogues.
Ucn 3 secretion from P cells was studied using a mouse clonal P cell line, MIN6, as a model. For these studies MIN6 cells (Miyazaki et al., 1990) were cultured in DMEM supplemented with 10% fetal bovine serum (FBS), and 114 μm β-mercaptoethanol. To assess Ucn 3 secretion, the cells were seeded in 6-well plates and allowed to recover for 48 hrs. The cells were then washed twice with HEPES-balanced Krebs-Ringer bicarbonate buffer (HKRB) containing 5 mM glucose and 0.2% BSA and were incubated in HKRB with various testing reagents for 2 h at 37° C. The incubation buffer was collected and vacuum-dried for Ucn 3 RIA. Exendin-4 and diazoxide and carbachol were purchased from Phoenix Pharmaceuticals (Belmont, Calif.), and Sigma (St. Louis, Mo.), respectively. […] The effect of glucose on Ucn 3 secretion plateaued at 16.8 mM.

isolated rat islets = test: Insulin secretion from isolated rat islets; type: cell-based; conditions: 10 nM in the presence of 8.4 mM glucose
Method: FIG. 4a-b: The effect of CRFR2 antagonist on insulin secretion in isolated rat islets. (a) The effect of astressin2B (Ast2-B) on insulin secretion in response to glucose in isolated rat islets. […] The asterisk indicates a statistically significant difference between results from the control versus Ast2-B. (b) Isolated rat isles were pre-treated with anti-Ucn 3 IgG or control IgG followed by addition of indicated concentration of glucose. Y-axis indicates insulin secretion from the treated islets. The double asterisks indicate a statistically significant difference between the indicated treatments. […]
To assess the effect of CRFR2 antagonism on islet cell function secretion of insulin from isolated rat islets was studied. […] Thus, activation of CRFR2 by endogenous ligands is involved in insulin secretion induced by high levels of glucose.
In order to determine the role of Ucn 3 in glucose induced insulin secretion, isolated rat islets were pretreated with an anti-Ucn 3 IgG prior to glucose treatment.

[1] = test system: insulin signaling in C2C12 myotubes; test: Phosphorylation studies of insulin signaling in C2C12 myotubes; type: cell-based; conditions: pretreatment with the PKA inhibitor
Method: FIG. 3a-l: Urocortin 2 effects on muscle glucose uptake are mediated by inhibition of insulin signaling. (a-f). Ucn 2 inhibits the insulin-induced Akt and ERK1/2 phosphorylation but not the insulin receptor phosphorylation. Differentiated C2C12 myotubes were pre-incubated with or without Ucn 2 peptide (0.1, 1 or 10 nM) for 1 hour prior to insulin treatment (10 nM, 5 min). Cell lystates were resolved using 4-12% gradient polyacrylamide gels. Gels were electrophorectically transferred to membranes and probed with antibodies specific for the phospho proteins pAkt (Ser 473), pERK1/2 or pIR (Tyr1146). Stimulation of Akt, ERK or insulin receptor (IR) activation was calculated by fold activation of the phosphorylated form normalized to total and compared with the untreated controls (a, d and f, graphs). […] (g-j) Ucn 2 treatment increases the phosphorylation of serine residue 307 and not the tyrosin phosphorylation of IRS-1. Myotube cells, treated with or without PKA inhibitor (H-89), were incubated with insulin and different concentrations of Ucn 2. IRS-1 immunoprecipitated proteins were electrophoresed as before and the immunoblots were probed for phosphorylated tyrosin (g), phosphorylated serine 307 IRS-1 (i) and total IRS-1 (g, i). […] (k) The effect of Ucn 2 on [^3H]2-deoxy-D-glucose uptake in differentiated C2C12 myotubes. Cells were incubated for 2 hours in low glucose, serum free medium and treated with Ucn 2 (0.1, 1 or 10 nM) or without (control) for 30 min prior to insulin administration (10 nM). Glucose uptake was measured 5 min following exposure to [^3H]2-deoxy-D-glucose. Non-specific uptake was measured by incubating muscle tissue with cytochalasin B, which binds to the glucose uptake transporter (GLUT) and inhibits glucose transport into the cell. Specific uptake was calculated by subtracting non specific from total glucose. (l) Schematic representation of the putative cellular mechanisms mediating the effect of Ucn 2 and CRFR2 on the insulin signaling and glucose uptake in skeletal muscle cells. * indicates p<0.05 vs. no treatment. # indicates p<0.05 vs. insulin treatment (b, d, f) or p<0.05 vs. insulin treatment and Ucn 2 (i).
Differentiated C2C12 myotubes were pre-incubated with or without Ucn 2 peptide (0.1, 1 or 10 nM) for 1 hour prior to insulin treatment (10 nM, 5 min). Cells were harvested immediately in 100 μl of sample treatment buffer [STB, 50 mM Tris (pH 6.8), 100 mM dithiothreitol, 2% (wt/vol) sodium dodecyl sulfate, 0.1% (wt/vol) bromphenol blue, and 10% (wt/vol) glycerol]. The samples were boiled for 5 min, proteins were electrophoresed on 4-12% sodium dodecyl sulfate-polyacrylamide gradient gel (Invitrogen Life Technologies), subsequently transferred onto nitrocellulose membranes, and probed with antibodies specific for phosphorylated Akt (Ser 473, Cell Signaling Technology, Inc., Beverly, Mass.), phosphorylated ERK1/2-p42, 44 (Santa Cruz Biotechnology, Inc., Santa Cruz, Calif.), phosphorylated insulin receptor (Tyr 1146, Cell Signaling Technology, Inc.), or phosphorylated IRS1 (Ser 307, Upstate Cell Signaling Solutions, Lake placid, NY). The membranes were washed with phosphate buffer saline containing 0.05% (vol/vol) Tween 20 and incubated with horseradish peroxidase-conjugated anti mouse or rabbit IgG raised in sheep (Amersham Biotech Pharmacia). Immunoreactive proteins were visualized using Super Signal West Pico Chemiluminescent substrate (Pierce, Rockford, Ill.). The relative protein levels were determined using densitometry (Image quant 1.2) by probing the membranes with antibodies directed against total proteins.

[2] = test system: C57/B6 mice fed with high fat diet; test: Ucn 3 treatment of high fat diet fed mice; type: in vivo, mouse; conditions: high fat diet 16 weeks; 30 μg/kg i.p. for 6 days; vs vehicle
Method: FIG. 6: The in vivo effect of Ucn 3 on insulin levels and blood glucose in a mouse model of type 2 diabetes. Wild-type mice were fed a high fat diet for 16 weeks to induce hyperglycemia. The mice were then injected for six days with vehicle alone or vehicle plus 30 μg/Kg of Ucn 3. Following treatment serum glucose (left panel) and serum insulin levels (right panel were determined.
To directly assess the in vivo activity of Ucn 3 in this model system C57/B6 mice were fed with high fat diet (45% Kcal) for 16 weeks. The mice were then injected i.p. with either vehicle or mouse Ucn 3 (30 μg/kg) for 6 days. […] These studies confirm the role of Ucn 3 in mediating increased insulin response to high blood sugar.

CC1=NS(=O)(=O)c2cc(Cl)ccc2N1 [diazoxide]
glucose-induced Ucn 3 secretion (MIN6 cells; pretreatment, 100 μM): effectively blocked

Exendin-4: a long acting GLP-1 analogue
insulin release from isolated islets (isolated rat islets): significantly stimulated; also recorded: stimulated insulin release
Ucn 3 secretion in the presence of 2.8 mM glucose (MIN6 cells): minimal or moderate
Ucn 3 release in the presence of 10 mM glucose (MIN6 cells): significantly stimulated

O=S(=O)(NCCNC/C=C/c1ccc(Br)cc1)c1cccc2cnccc12 [H-89]
phosphorylation of IRS-1 on S307 by Ucn 2 [1]: completely blocked

Ucn 3: Urocortin 3, CRF family member acting as CRFR2 agonist; mouse Ucn 3 (SEQ ID NO:3) (FTLSLDVPTNIMNILFNIDKAKNLRAKAAANAQLMAQI; ends and bridges not checked; listed as Mus musculus)
glucose levels [2]: significantly lower glucose levels
insulin levels [2]: higher insulin levels compared to the control, though the difference was not statistically significant

C[N+](C)(C)CCOC(N)=O [carbachol]
Ucn 3 secretion in the presence of 2.8 mM glucose (MIN6 cells): minimal or moderate
Ucn 3 release in the presence of 10 mM glucose (MIN6 cells): significantly stimulated
